Experimental data from patent publication US7009053B2, “Quinoline derivatives as caspase-3 inhibitor, preparation for producing the same and pharmaceutical composition comprising the same” (Yungjin Pharmaceuticals Co., Ltd., priority 2002, dated 2006).

Biological target: T1, human recombinant caspase-3 enzyme (Homo sapiens, UniProt P42574)
T1 construct: each cDNA encoding p12 and p17 subunits of caspase-3 was PCR-amplified respectively and subcloned into a pET3-a expression vector; made in house; host or cells: E. coli BL21 (DE3), pET3-a vector
T1 sequence (P42574 29-175 limits assumed): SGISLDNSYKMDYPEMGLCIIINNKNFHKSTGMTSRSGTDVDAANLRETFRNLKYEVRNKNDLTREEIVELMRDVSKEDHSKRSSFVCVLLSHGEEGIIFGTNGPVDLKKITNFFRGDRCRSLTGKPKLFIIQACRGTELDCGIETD
T1 sequence (P42574 176-277 limits assumed): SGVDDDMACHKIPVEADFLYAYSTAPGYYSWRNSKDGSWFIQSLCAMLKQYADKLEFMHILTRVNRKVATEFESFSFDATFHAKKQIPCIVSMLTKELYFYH
Assay: Enzyme assay of caspase-3 inhibition (fluorogenic Ac-DEVD-AFC substrate)
Type: biochemical
Details: for IC50: caspase-3, Table 1, tested at 2, 20 or 200 uM, read-out: IC50; for inhibitory activity against caspase-3 (in words): compared to the reference compound
Method: The active form of human recombinant caspase-3 enzyme was prepared from Escherichia coli (E.coli) heterologous expression system as described previously (Rotonda J. et al., Nat Struct Biol 3(7): 617–25, 1996). Briefly, each cDNA encoding p12 and p17 subunits of caspase-3 was PCR-amplified respectively and subcloned into a pET3-a expression vector (Novagen), which was followed by transfection into E. coli strain BL21 (DE3). The bacterial cultures (0.5 liters for each transfectant) were grown at 37° C. until logarithmic phase of cell growth and isopropyl-1-thio-β-D-galactopyranoside (IPTC) (Pharmacia) was then added to a final concentration of 0.5 mM. After 3 hr of incubation, the bacteria were pelleted and lysed in a lysis buffer (20 mM Tris hydrochloride pH 8.0, 1 mM EDTA, 2 mM dithiothreitol (DTT), 100 mM NaCl, 200 ug/ml of lysozyme) through sonication. After centrifugation, the pellets from each transfectants were dissolved in 6 M urea and were mixed and rapidly diluted 50 fold in 100 mM HEPES/KOH (pH 7.5), 10% sucrose, 0.1% CHAPS, 0.5 M NaCl, 10 mM DTT. The concentration of protein was determined with the Bradford method (Bio-Rad), with bovine serum albumin as the standard. To verify whether expected size of proteins were obtained, the cell lysates from each cDNA transfectants were analyzed on 14% SDS PAGE and visualized with Coomassie blue staining.
200 ul of the following assay solution was contained in each well of 96-well plate: 20 mM HEPES/KOH (pH 7.5), 10% sucrose, 10 mM DTT, 0.2 mM EDTA, 0.1% CHAPS, 200 ng of enzymes, and 2.5 uM of the substrate. The fluorogenic substrate […]-Asp-Glu-Val-Asp-7-amino-4-trifluoromethylcoumarin (Ac-DEVD-AFC) was purchased from Sigma (St Louis, Mo.) and dissolved in DMSO as a 2.5 mM stock solution and kept at −20° C. before use.
After 1 hr incubation at 37° C., the release of AFC (7-amino-4-trifluoromethyl-coumarin) was monitored in a fluorometric plate reader (Victor 1420). The excitation and emission wavelengths were 400 nm and 510 nm, respectively. The inhibitory effects of compounds on enzyme activities were determined with 2, 20 or 200 uM concentrations of the test compound run in triplicate tubes, and isotherms from three assays were calculated by computerized nonlinear regression analysis (GraphPad Prism Program, San Diego, Calif.) to yield IC50 values.

Row | %-Inhibition (caspase-3 activity, at 20 uM) [%] | IC50 [µM] | inhibition at 20 µM (caspase-3 activity, at 20 uM) [%] | inhibitory activity against caspase-3 (in words) | Compound
1 | 76.8 | – | – | – | CN1C(=O)C(=O)c2cc(S(=O)(=O)N3CCC[C@H]3COc3ccccc3)ccc21 [(S)-1-methyl-5-{1-[2-(phenoxymethyl)pyrrolidinyl]sulfonyl} isatin, reference compound]
2 | – | 14.4 | 81.7 | – | CCOC(=O)c1cnc2c(N)cccc2c1NCc1ccccc1 [Example 17, 8-Amino-4-benzylamino-quinoline-3-carboxylic acid ethyl ester]
3 | – | 14.1 | 84.7 | – | CCOC(=O)c1cnc2c(N)cccc2c1NC1CCCCC1 [Example 18, 8-Amino-4-cyclohexylamino-quinoline-3-carboxylic acid ethyl ester]
4 | – | 14.9 | 84.9 | – | CCOC(=O)c1cnc2c(N)cccc2c1NCc1cccc2ccccc12 [Example 19, 8-Amino-4-[(naphthalen-1-ylmethyl)-amino]-quinoline-3-carboxylic acid ethyl ester]
5 | – | 13.2 | 90.1 | superior activity | CCOC(=O)c1cnc2c(N)cccc2c1NCc1ccccn1 [Example 20, 8-Amino-4-[(pyridin-2-ylmethyl)-amino]-quinoline-3-carboxylic acid ethyl ester]
6 | – | 19.2 | 78 | – | CCOC(=O)c1cnc2c(N)cccc2c1NCc1cccs1 [Example 21, 8-Amino-4-[(thiophen-2-ylmethyl)-amino]-quinoline-3-carboxylic acid ethyl ester]
7 | – | 14.3 | 86 | – | CCOC(=O)c1cnc2c(N)cccc2c1NCc1ccc2c(c1)OCO2 [Example 23, 8-Amino-4-[(benzo[1,3]dioxol-5-ylmethyl)-amino]-quinoline-3-carboxylic acid ethyl ester]
8 | – | 16.5 | 88.8 | – | CCOC(=O)c1cnc2c(N)cccc2c1NC(CC)COC (centres unmarked) [Example 25, 8-Amino-4-(1-methoxymethyl-propylamino)-quinoline-3-carboxylic acid ethyl ester]
9 | – | 15.4 | 88.9 | – | CCCCNc1c(C(=O)OCC)cnc2c(N)cccc12 [Example 26, 8-Amino-4-butylamino-quinoline-3-carboxylic acid ethyl ester]
10 | – | 15.9 | 87.8 | – | CCOC(=O)c1cnc2c(N)cccc2c1NCC(C)C [Example 27, 8-Amino-4-isobutylamino-quinoline-3-carboxylic acid ethyl ester]
11 | – | 17.6 | 85.2 | – | CCOC(=O)c1cnc2c(N)cccc2c1NC(C)C [Example 28, 8-Amino-4-isopropylamino-quinoline-3-carboxylic acid ethyl ester]
12 | – | 18.8 | 78.8 | – | CCOC(=O)c1cnc2c(N)cccc2c1NCc1ccccc1F [Example 29, 8-Amino-4-(2-fluoro-benzylamino)-quinoline-3-carboxylic acid ethyl ester]
13 | – | 19.1 | 76.9 | – | CCOC(=O)c1cnc2c(N)cccc2c1NCc1cccc(F)c1 [Example 30, 8-Amino-4-(3-fluoro-benzylamino)-quinoline-3-carboxylic acid ethyl ester]
14 | – | 13.5 | 92.5 | superior activity | CCOC(=O)c1cnc2c(N)cccc2c1NCCCOC(C)C [Example 31, 8-Amino-4-(3-isopropoxy-propylamino)-quinoline-3-carboxylic acid ethyl ester]
15 | – | 16.9 | 82.9 | – | CCOC(=O)c1cnc2c(N)cccc2c1NCc1ccccc1OC [Example 32, 8-Amino-4-(2-methoxy-benzylamino)-quinoline-3-carboxylic acid ethyl ester]
16 | – | 15.8 | 86.5 | – | CCOC(=O)c1cnc2c(N)cccc2c1NCc1ccc(OC)cc1 [Example 33, 8-Amino-4-(4-methoxy-benzylamino)-quinoline-3-carboxylic acid ethyl ester]

Row | %-Inhibition (caspase-3 activity, at 20 uM) [%] | IC50 [µM] | inhibition at 20 µM (caspase-3 activity, at 20 uM) [%] | inhibitory activity against caspase-3 (in words) | Compound
17 | – | 16 | 83.9 | – | CCOC(=O)c1cnc2c(N)cccc2c1NCc1cccc(OC)c1 [Example 34, 8-Amino-4-(3-methoxy-benzylamino)-quinoline-3-carboxylic acid ethyl ester]
18 | – | 13.6 | 91.5 | superior activity | CCOC(=O)c1cnc2c(N)cccc2c1NCCOC [Example 35, 8-Amino-4-(2-methoxy-ethylamino)-quinoline-3-carboxylic acid ethyl ester]
19 | – | 15.3 | 82.1 | – | CCOC(=O)c1cnc2c(N)cccc2c1NCc1ccc(C)cc1 [Example 37, 8-Amino-4-(4-methyl-benzylamino)-quinoline-3-carboxylic acid ethyl ester]
20 | – | 16.6 | 77.2 | – | CCOC(=O)c1cnc2c(N)cccc2c1NCCc1ccccc1 [Example 38, 8-Amino-4-phenethylamino-quinoline-3-carboxylic acid ethyl ester]
21 | – | 16.4 | 78.8 | – | CCOC(=O)c1cnc2c(N)cccc2c1NCCCc1ccccc1 [Example 39, 8-Amino-4-(3-phenyl-propylamino)-quinoline-3-carboxylic acid ethyl ester]
22 | – | 16.4 | 81.7 | – | CCOC(=O)c1cnc2c(N)cccc2c1NCCCCc1ccccc1 [Example 40, 8-Amino-4-(4-phenyl-butylamino)-quinoline-3-carboxylic acid ethyl ester]
23 | – | 17.8 | 78.4 | – | CCOC(=O)c1cnc2c(N)cccc2c1NCc1ccccc1Cl [Example 41, 8-Amino-4-(2-chloro-benzylamino)-quinoline-3-carboxylic acid ethyl ester]
24 | – | 17 | 82.9 | – | CCOC(=O)c1cnc2c(N)cccc2c1NCc1ccc(Cl)cc1 [Example 42, 8-Amino-4-(4-chloro-benzylamino)-quinoline-3-carboxylic acid ethyl ester]
25 | – | 27 | 54.7 | – | CCOC(=O)c1cnc2c(N)cccc2c1NCc1ccc(Cl)cc1Cl [Example 43, 8-Amino-4-(2,4-dichloro-benzylamino)-quinoline-3-carboxylic acid ethyl ester]
26 | – | 18.1 | 72.1 | – | CCOC(=O)c1cnc2c(N)cccc2c1NCc1cccc(OC)c1OC [Example 44, 8-Amino-4-(2,3-dimethoxy-benzylamino)-quinoline-3-carboxylic acid ethyl ester]
27 | – | 16 | 85 | – | CCCNc1c(C(=O)OCC)cnc2c(N)cccc12 [Example 45, 8-Amino-4-propylamino-quinoline-3-carboxylic acid ethyl ester]
28 | – | 16.2 | 83.8 | – | CCOC(=O)c1cnc2c(N)cccc2c1NCCc1ccccc1N [Example 46, 8-Amino-4-[2-(2-amino-phenyl)-ethylamino]-quinoline-3-carboxylic acid ethyl ester]
29 | – | 21.2 | 69.3 | – | CCOC(=O)c1cnc2c(N)cccc2c1NCc1cc(OC)cc(OC)c1 [Example 47, 8-Amino-4-(3,5-dimethoxy-benzylamino)-quinoline-3-carboxylic acid ethyl ester]
30 | – | – | 76.8 | – | CCCOC(=O)c1cnc2c(N)cccc2c1NCc1ccccn1 [Example 60, 8-Amino-4-[(pyridine-2-ylmethyl)-amino]-quinoline-3-carboxylic acid propyl ester]
31 | – | – | 81.4 | – | CC(C)OC(=O)c1cnc2c(N)cccc2c1NCc1ccccn1 [Example 61, 8-Amino-4-[(pyridin-2-ylmethyl)-amino]-quinoline-3-carboxylic acid isopropyl ester]
